Laboratory results: a melting point compilation (Tetko et al.; mined from patent text by program, amines drawn as free bases though some values may be those of a salt)

Structure (SMILES) | melting point
COc1ccc2c(c1)C(=NO)C(=O)N2c1ccc(F)cc1 | 217 to 219 °C
COCC1CN(c2ccc(C3CCN(C(=O)c4ccc(C(F)(F)F)cc4)CC3)cc2)C(=O)O1 (racemic) | 164 to 166 °C
CCCCCCCCCCCCCc1cc[nH]c1 | 32.5 to 33.5 °C
CCC(=O)c1ccnc(OC)c1 | 38 °C
CC(=O)Oc1ccc(C(=O)N2CCNC2=O)cc1OC(C)=O | 154 to 156 °C
O=C1c2ccccc2C(=O)c2sc(-c3ccoc3)nc21 | 245 °C
CN(CCS(C)(=O)=O)C1CCN(S(=O)(=O)c2ccc(Nc3nccc(-c4ccc(F)cc4)n3)cc2)CC1 | 166 °C
CSc1ccc2c(C(=O)C(F)(F)F)c[nH]c2c1 | 237 to 239 °C
Cc1ccsc1CNC(=O)C(=O)NCCc1ccccn1 | 122 to 124 °C
COC(=O)C1=C(C)NC(C)=C(C(=O)OC)C1c1cccc(N)c1 | 214 to 215 °C
CC(C)(C)c1ccc(-c2cc(C(=O)/C=C/c3ccc(C(=O)O)cc3)cc3c2C(C)(C)CCC3(C)C)cc1 | 241 °C
CCCCCS(=O)(=O)NC(=O)/C=C/c1ccc(OCCOC)cc1Oc1cc(C(F)(F)F)ccc1[N+](=O)[O-] | 164 to 165 °C
Nc1cc(F)c(-c2cccnc2)c(F)c1 | 141 to 142 °C
COc1ccc(N2CCN(c3c(C)c4c(c(OC(C)C)c3C)OC(C)C4)CC2)cc1 (stereo not given) | 110 to 112 °C
Clc1cc(-c2ccccc2)nc2nn(-c3ccccc3)cc12 | 175 to 177 °C
COc1cc(-c2ncnc(C(F)F)c2Cl)c(F)cc1Cl | 118 to 119 °C
CN(C)c1ccc(N2C(=O)C3Cc4[nH]cnc4CN3C2=S)cc1 (stereo not given) | 185 to 200 °C
Cc1cc(-n2ccc(OCc3ccc(F)cc3)cc2=O)sc1C(=O)NCc1ccccc1 | 195 to 197 °C
COC(=O)c1sccc1S(=O)(=O)NC(=O)Nc1nc(OC)cc(OC)n1 | 191 to 193 °C
COC(=O)C=CC=Cc1ccccc1CNC(=O)OC(C)(C)C | 96 to 97.5 °C
Cc1ccc(S(=O)(=O)N2CCC[C@H]2C(=O)N[C@@H](Cc2ccc(NC(=O)C3CCNCC3)cc2)C(=O)O)cc1 | 125 to 128 °C
CCO/C(=N/O)C1Cc2cc(C(C)=O)c(O)c(Cl)c2O1 (stereo not given) | 154 to 155 °C
COc1ccc(C(=O)Nc2ccccc2)cc1NS(=O)(=O)c1ccc(F)cc1 | 209 to 211 °C
COc1cc2cc(-c3cccnc3)cnc2cc1OC | 131 to 132 °C
O=C(Nc1ccc(-n2nc(C3CC3)cc2C2CC2)cc1)c1ccncc1F | 135 to 139 °C

Structure (SMILES) | melting point
COC(=O)C(CC1CCCC1)c1ccc(I)cc1 (stereo not given) | 51 to 54 °C
COc1cc(C(=O)CBr)cc(C#N)c1OC | 138 to 141 °C
COC(=O)c1cc2c(nc1C)C(COC(=O)Oc1ccc([N+](=O)[O-])cc1)CCCC2 (stereo not given) | 116 to 117 °C
FC1(F)C(Oc2cc(Cl)c(Cl)cc2Cl)=C(Oc2cc(Cl)c(Cl)cc2Cl)C(F)(F)C1(F)F | 65 to 68 °C
CN1CCC(=O)N(c2ccccc2)c2cc(Cl)ccc21 | 143 to 144 °C
c1cc2c(cc1OCC1CCCCC1)CCCCC2 | 62 to 63 °C
COc1cc2c(c(OC)c1OC)COc1c(C(F)(F)F)nn(-c3ccc(S(N)(=O)=O)cc3)c1-2 | 130 °C
CC(C)C(O)CCC(C)C1CCC2C3CC(O)C4CC(O)CCC4(C)C3CCC12C (stereo not given) | 169 to 173 °C
CCOC(=O)c1c(-c2ccccc2Cl)c2cc(C(C)C)ccc2[nH]c1=O | 173 to 174 °C
NC(=O)Nc1nc2c(s1)-c1c(cnn1-c1ccccc1)CC2 | 321 to 325 °C
O=C(NC1CCN(CCC2CCOc3ccccc32)CC1)c1cccnc1 (stereo not given) | 126 to 128 °C
c1ccc(Cc2cnc(N3CCN(c4ncnc5ccccc45)CC3)nc2)cc1 | > 250 °C
CC(=O)N(Cc1ccc(Cl)cc1Cl)c1cncnc1 | 134 to 136 °C
CC(=O)OC1CSC(Oc2cncc(-c3cnn(C)c3)c2)C(OC(C)=O)C1OC(C)=O (stereo not given) | 68 °C
O=C1CCC(N2Cc3cc(CNC(=O)NC4CCCCC4)ccc3C2=O)C(=O)N1 (stereo not given) | 265 to 267 °C
Nc1c(I)c(C(F)(F)F)nn1-c1c(Cl)cc(C(F)(F)F)cc1Cl | 126 °C
Cc1cc(C(F)(F)F)n2nc(SCc3ccccc3)nc2n1 | 83.5 to 84.5 °C
O=C1CCC(c2ccc(F)cc2)c2ccccc2N1 (stereo not given) | 209 to 212 °C
N#Cc1c(N)sc(C=O)c1Sc1ccccc1 | 230 °C
COc1ccc(C(=NO)c2ccccc2F)c(O)c1C | 167 to 169 °C
COc1ccc(C(=O)CC(C)(C)C(=O)O)c2c1OC(C)(C)C2 | 159 to 160 °C
CC(CCCc1ccccc1)c1cc2c(cc1O)C1=C(CCCC1=O)C(C)(C)O2 (stereo not given) | 186 to 188 °C
CCN(CC)CCNC(=O)N(CCS(=O)(=O)c1ccc(OC)cc1)C(C)C | 39.5 to 42 °C
CSc1ccc(C(=O)c2cc(-c3ccc(S(C)(=O)=O)cc3)c(N3CCOCC3)s2)cc1 | 160 °C
CC(C)(C)SC1CC(=O)N1CC(=O)OCc1ccc([N+](=O)[O-])cc1 (stereo not given) | 82.5 to 84 °C

Structure (SMILES) | melting point
O=C(c1cccc(C(F)(F)F)c1)N1CCc2cc(S(=O)(=O)N3CC(c4ccccc4)NC3=O)ccc21 (stereo not given) | 119 °C
N#Cc1cc(C(=O)CC(O)(c2cc(Cl)cc(Cl)c2)C(F)(F)F)ccc1F (stereo not given) | 146 to 147 °C
CC(c1ccc(CCNC(=O)c2ccc(Br)cc2)cc1)N1CCCC1 (stereo not given) | 124 to 126 °C
COc1ccc(CCN2CCC(C(=O)O)(S(=O)(=O)c3ccc(OC)cc3)CC2)cc1 | 205 °C
COC(=O)c1ccc(=O)n(CCNC(=O)c2cc(Cl)ccc2OC)c1 | 149 to 150 °C
Cc1cc(C23CC4CC(CC(C4)C2)C3)ccc1NC(=O)c1cc([N+](=O)[O-])ccc1Br | 229 °C
O=C(O)/C(=C\c1ccccc1)CC(=O)N1C[C@H]2CCCC[C@H]2C1 | 126 to 128 °C
N#Cc1cc(C(F)(F)F)[nH]c1-c1ccc(Cl)c(Cl)c1 | 230 to 232 °C
Nc1nc(Cc2ccc(OCc3ccccc3)cc2)nc2nc(-c3ccco3)nn12 | 220 to 222 °C
CCCc1nc2cncc(C)c2[nH]1 | 173 to 175 °C
CC(=O)Oc1ccccc1C(=O)Oc1cccc(CO)c1 | 77 to 79 °C
Cc1cn(-c2cc(C#N)cc(C(F)(F)F)c2)cn1 | 127 to 128 °C
COC(=O)CN(C)C(=O)c1c2ccc(Cl)ccc-2[nH]c1=O | 170 to 172 °C
O=c1c(O)cn(-c2ccccc2F)nc1-c1ccnn1-c1ccccc1 | 218 to 220 °C
Fc1cc(F)cc(-c2cccc3[nH]c4c(c23)CCN(Cc2ccccc2)CC4)c1 | 172 to 175 °C
Nc1ccc2snc(-c3sccc3Cl)c2c1 | 128 to 132 °C
Clc1ccc(CCNc2ccc3ccc(NCCc4ccc(Cl)cc4)nc3c2)cc1 | 55 to 60 °C
CC(C)C[C@@H]1NC(=O)[C@@H]1O | 141 to 142 °C
CCCCCS(=O)(=O)NC(=O)/C=C/c1cc(OC2CCOCC2)nn1Cc1ccc(C(F)(F)F)cc1Cl | 160 to 161 °C
CNC(=O)Oc1ccc2[nH]cc(CCCN3CCN(c4ncncc4OC)CC3)c2c1 | 120 to 122 °C
CN(C)c1ccc(Pc2ccc(N(C)C)cc2)cc1 | 80 to 90 °C
CCS(=O)(=O)N(C)Cc1ccc2[nH]cc(CCCN3CCN(c4ncncc4OC)CC3)c2c1 | 113 to 115 °C
CC1C2C(CON2C)CN1c1c(F)cc2c(=O)c(C(=O)O)cn(C3CC3)c2c1F (stereo not given) | 197 to 199 °C
CN=C(Cc1ccccc1)N1CC2C(=O)CCC(c3ccccc3)(c3ccccc3)C2C1 (stereo not given) | 110 °C
C=CCOC(=O)CCCCCCCCCCCCCCCCC | 35 to 36 °C

Structure (SMILES) | melting point
CCCCCCCCCCCCCCC1CC(=O)N(NC(=O)CCc2cc(C(C)(C)C)c(O)c(C(C)(C)C)c2)C1=O (stereo not given) | 70 to 77 °C
Cc1nnc2ccc(-c3cccnc3)cn12 | 199 to 202 °C
N#Cc1ccc(-c2ccccc2OCC2CC2)[nH]c1=O | 250 to 252 °C
COC(=O)c1c(F)c(F)c(F)c(F)c1C(=O)OC | 68 to 70 °C
C=C(Cl)CC1(C)Cc2cc(O)c(Cl)c(Cl)c2C1=O (stereo not given) | 183 °C
CC(C)(C)N(NC(=O)c1ccco1)C(=O)c1ccccc1 | 160 to 162 °C
COc1cc(C=O)ccc1Oc1nc(Nc2cccc(C(=O)O)c2)nc(Oc2ccccc2)n1 | 218 to 220 °C
Cc1cc(CCCOc2c(C)cc(-c3noc(C(Cl)(Cl)Cl)n3)cc2C)on1 | 77 to 77.5 °C
Cc1ccncc1OC1SCC(O)C(O)C1O (stereo not given) | 236 °C
CCn1c(=O)n(CCN2CC[C@H](NC(=O)c3cc(Cl)c(N)c4c3OCC4)[C@H](OC)C2)c2ccccc21 (relative stereo) | 174 °C
CC(C)(C)c1ccc(CNC(=O)NCc2ccc(NS(C)(=O)=O)c([N+](=O)[O-])c2)cc1 | 177 to 178 °C
CCCCc1ncc(CCN(C)C(Cc2ccccc2)C(=O)O)n1Cc1ccccc1Cl (stereo not given) | 59 to 61 °C
COCCOc1cc2ncnc(Nc3cc(OC)c(Br)cc3OC)c2cc1OC | 217 to 221 °C
O=[N+]([O-])c1cccc(Oc2nccnc2Cl)c1 | 119 to 121 °C
Cn1nc2ccc3nc(O)c(O)nc3c2n1 | > 300 °C
O=C(O)CN(C(=O)CCCCl)c1csc2ccccc12 | 167 to 168 °C
Nc1cccc(-c2ccc(CCCN3CCN(CCc4ccccc4)CC3)cc2)n1 | 125 to 140 °C
Nc1nc(N)c2c(ccc3c2ccn3Cc2ccc(Cl)cc2Cl)n1 | 249 to 250 °C
COc1ccc(NS(C)(=O)=O)cc1C(=O)NC1CCN(C2CCCCC2)C1 (stereo not given) | 170 to 172 °C
CCc1cn(C2OC(CN)C(O)C2F)c(=O)[nH]c1=O (stereo not given) | 194 to 214 °C
On1c(-c2ccncc2)nc2ccc(Cn3ccnc3)cc21 | 198 °C
CCCCNC1=NS(=O)(=O)c2ccc(Cl)cc2N1 | 267 to 269 °C
c1ccc(-c2cc(NC3=NCCN3)n(-c3ccccc3)n2)cc1 | 228 to 230 °C
N[C@@H]1C(=O)N(S(=O)(=O)O)[C@H]1C1CCCCC1 (relative stereo) | 135 to 138 °C
Cn1cc(C(=S)NCc2ccc(Cl)cc2)c(=O)c2cc(C#CCO)ccc21 | 200 to 201 °C
